Measurements reported in the NIST ThermoML archive (doi:10.1016/j.fluid.2017.12.001).

Assay: xn = mol fraction of the nth substance listed
Settings: 100.9 kPa, Liquid; for viscosity: Concentric cylinders viscometry; for speed of sound: Single path-length method; for mass density: Vibrating tube method

CCCC(=O)[O-].CC[NH2+]CC [diethylammonium butanoate] + O
Settings	mass density [kg/m3]	speed of sound [m/s]	viscosity [mPa·s]
323.15 K, x1 = 0.0122	–	–	0.84
323.15 K, x1 = 0.0123	990.45	1618.6	–
323.15 K, x1 = 0.0451	–	–	1.72
323.15 K, x1 = 0.0453	991.08	1724.2	–
323.15 K, x1 = 0.0999	–	–	3.8
323.15 K, x1 = 0.1005	984.28	1708.8	–
323.15 K, x1 = 0.143	–	–	5.75
323.15 K, x1 = 0.1439	971.05	1672.4	–
323.15 K, x1 = 0.2051	–	–	8.98
323.15 K, x1 = 0.2067	964.37	1612.6	–
323.15 K, x1 = 0.3064	–	–	14.26
323.15 K, x1 = 0.3096	949.4	1531.7	–
323.15 K, x1 = 0.4879	–	–	19.64
323.15 K, x1 = 0.4951	926.37	1446.2	–
323.15 K, x1 = 0.6684	–	–	20.46
323.15 K, x1 = 0.6812	918.45	1384.7	–
323.15 K, x1 = 0.7974	900.35	1379.5	–
323.15 K, x1 = 0.974	895.2	1343.3	18.14
325.65 K, x1 = 0.0122	–	–	0.8
325.65 K, x1 = 0.0451	–	–	1.62
325.65 K, x1 = 0.0999	–	–	3.53
325.65 K, x1 = 0.143	–	–	5.31
325.65 K, x1 = 0.2051	–	–	8.24
325.65 K, x1 = 0.3064	–	–	12.94
325.65 K, x1 = 0.4879	–	–	17.73
325.65 K, x1 = 0.6684	–	–	18.49
325.65 K, x1 = 0.974	–	–	16.45
328.15 K, x1 = 0.0122	–	–	0.75
328.15 K, x1 = 0.0451	–	–	1.52
328.15 K, x1 = 0.0999	–	–	3.29
328.15 K, x1 = 0.143	–	–	4.92
328.15 K, x1 = 0.2051	–	–	7.58
328.15 K, x1 = 0.3064	–	–	11.79
328.15 K, x1 = 0.4879	–	–	16.02
328.15 K, x1 = 0.6684	–	–	16.76
328.15 K, x1 = 0.974	–	–	14.94
330.65 K, x1 = 0.0122	–	–	0.72
330.65 K, x1 = 0.0451	–	–	1.44
330.65 K, x1 = 0.0999	–	–	3.07
330.65 K, x1 = 0.143	–	–	4.57
330.65 K, x1 = 0.2051	–	–	6.99
330.65 K, x1 = 0.3064	–	–	10.77
330.65 K, x1 = 0.4879	–	–	14.54
330.65 K, x1 = 0.6684	–	–	15.23
330.65 K, x1 = 0.974	–	–	13.61
333.15 K, x1 = 0.0122	–	–	0.69
333.15 K, x1 = 0.0451	–	–	1.36
333.15 K, x1 = 0.0999	–	–	2.87
333.15 K, x1 = 0.143	–	–	4.25
333.15 K, x1 = 0.2051	–	–	6.46
333.15 K, x1 = 0.3064	–	–	9.86
333.15 K, x1 = 0.4879	–	–	13.24
333.15 K, x1 = 0.6684	–	–	13.86
333.15 K, x1 = 0.974	–	–	12.38
335.65 K, x1 = 0.0122	–	–	0.66
335.65 K, x1 = 0.0451	–	–	1.29
335.65 K, x1 = 0.0999	–	–	2.7
335.65 K, x1 = 0.143	–	–	3.96
335.65 K, x1 = 0.2051	–	–	5.98
335.65 K, x1 = 0.3064	–	–	9.05
335.65 K, x1 = 0.4879	–	–	12.07
335.65 K, x1 = 0.6684	–	–	12.64
335.65 K, x1 = 0.974	–	–	11.33
338.15 K, x1 = 0.0122	–	–	0.64
338.15 K, x1 = 0.0451	–	–	1.22
338.15 K, x1 = 0.0999	–	–	2.53
338.15 K, x1 = 0.143	–	–	3.7
338.15 K, x1 = 0.2051	–	–	5.55
338.15 K, x1 = 0.3064	–	–	8.33
338.15 K, x1 = 0.4879	–	–	11.03
338.15 K, x1 = 0.6684	–	–	11.56
338.15 K, x1 = 0.974	–	–	10.37
340.65 K, x1 = 0.0122	–	–	0.61
340.65 K, x1 = 0.0451	–	–	1.16
340.65 K, x1 = 0.0999	–	–	2.39
340.65 K, x1 = 0.143	–	–	3.46
340.65 K, x1 = 0.2051	–	–	5.16
340.65 K, x1 = 0.3064	–	–	7.68
340.65 K, x1 = 0.4879	–	–	10.11
340.65 K, x1 = 0.6684	–	–	10.59
340.65 K, x1 = 0.974	–	–	9.48
343.15 K, x1 = 0.0122	–	–	0.59
343.15 K, x1 = 0.0451	–	–	1.1
343.15 K, x1 = 0.0999	–	–	2.25
343.15 K, x1 = 0.143	–	–	3.24
343.15 K, x1 = 0.2051	–	–	4.81
343.15 K, x1 = 0.3064	–	–	7.09
343.15 K, x1 = 0.4879	–	–	9.28
343.15 K, x1 = 0.6684	–	–	9.64
343.15 K, x1 = 0.974	–	–	8.7
